Tested on: Akt phosphorylation (Ser473) in CLL cells
Test: Akt phosphorylation in CLL cells stimulated with anti-IgM
Format: cell-based, human
Conditions: CL27c 10 nM–10 µM
Method: CLL cells (#Hs 505.T, ATCC® CRL-7306™) were cultured with RPMI additioned with 10% FBS and 100 μg/ml penicillin and streptomycin. The day of the assay CLL cells were seeded in 96-well plate at a concentration of 7 × 10^4 cells/ml in starving medium, RPMI free. The cells were starved for 6 h and subsequently pretreated for 1.5 h with CL27c at different concentrations. The cells were stimulated for 15 min with 15 μg/ml of goat anti-Human IgM-MU chain specific antibody (Sigma-Aldrich #I0759-1MG) and proteins were extracted with Laemmli buffer.
For all cell types, phosphorylated Akt (P-Akt, Ser 473, 1:100, Cell Signaling Technology #4060) production was detected by western blot analysis and quantified with ChemiDoc™ XRS system. P-Akt signals are normalized on endogenous. For the calculation of EC50 values, a percentage of residual P-Akt was calculated for each inhibitor concentration by using the control vehicle as 100%. To derive the EC50, all data were plotted on a dose response curve (Graph Pad software) and the EC50 was calculated by using the non-linear regression fit (equation [log agonist] vs response–variable slope).
Supplementary Figure 3: Inhibition of Akt phosphorylation at Ser473 (pAkt473) […]
panel). […] The respective EC50 was calculated by using nonlinear

Structure (SMILES): COC(=O)c1cccc(Cn2cc(-c3cccc4c(=O)cc(N5CCOCC5)[nH]c34)nn2)c1 [CL27c]
- Akt/PKB phosphorylation: readily reduced Akt/PKB phosphorylation
